Source: patent publication US20220401374A1, “COMPOSITIONS AND METHODS FOR CANCER TREATMENT BY ENHANCING ANTITUMOR IMMUNITY USING TANNIC ACID-BASED NANOCAPSULES” (Purdue Research Foundation, priority 2019, published 2022)

What was measured:
[1] = system: B16F10 cells; assay: Cytotoxicity by MTT assay in B16F10 cells; type: cell-based, murine; details: 24 h total
Procedure: Bolus-pulse: Cells were incubated with CFZ-DMSO at different CFZ concentrations for 2.4 h then washed and incubated in drug-free medium for additional 21.6 h making the total incubation time of 24 h. Low-extended: Cells were incubated with at 1/10th CFZ concentrations for 24 h. Cell viability was measured by the MTT assay at the end of 24 h. % cell viability was calculated by normalizing to the viability of control cells treated with the equivalent amount of vehicle for the same period of time.
B16F10 (derived from murine melanoma; ATCC, Manassas, Va., USA) or HCC-1937 (derived from human triple negative breast cancer; ATCC, Manassas, Va., USA) were grown in RPMI 1640 or DMEM medium, respectively, supplemented with 10% FBS and penicillin (100 IU/mL) and streptomycin (100 μg/mL). Cells were seeded in a 96 well plate at a density of 4,000 cells per well. After 24 h incubation, the culture medium was replaced with fresh medium containing CFZ (as a stock solution in DMSO), CFZ-pTA or CFZ-pTA-alb. […] The stop/solubilizing solution was added to dissolve formazan crystals, and the absorbance was read at the wavelength of 562 nm by the SpectraMax M3 microplate reader.

[2] = system: BMDCs; assay: BMDC activation after coculture with pretreated B16F10 cells (CD40, CD86); type: cell-based, C57BL/6 mice; details: B16F10 pretreated 24 h, 200 nM CFZ-equivalent
Procedure: Bone marrow cells were collected from healthy male C57BL/6 as reported previously^71. Mice at the age of 6-8 weeks were sacrificed using CO2 asphyxiation. Using a syringe, the cavities of femur bones were flushed with RPMI 1640 medium containing penicillin/streptomycin. The collected bone marrow was pipetted several times and passed through a 40 μm cell strainer to obtain single cell suspension. The cells were collected by centrifugation at 500 rcf for 8 min, treated with ACK buffer, rinsed, and suspended in IMDM medium supplemented with 10% FBS, penicillin/streptomycin, 20 ng/mL GM-CSF, and 10 mM β-mercaptoethanol at a density of 2×10^6 cells per 10 mL to differentiate into dendritic cells (DCs). Additional medium was supplemented three days later, and the floating and loosely adherent cells were collected by centrifugation on day 6. The DC phenotype was confirmed by CD11c staining. […] The stained cells were analyzed by flow cytometry (Accuri C6, BD Biosciences, San Jose, Calif., USA). Fluorescence-minus-one (FMO) controls were used for compensation and gating. The extent of phagocytosis was expressed as the percentage of DiI^+CD11c^+ cells per total CD11c^+ cells. The DC activation was assessed by CD11c^+CD40^+ or CD11c^+CD86^+ per total CD11c^+ cells.

[3] = system: plasma protein; details: cited from earlier work
[4] = system: BMDCs; assay: Phagocytosis of pretreated DiI-labeled B16F10 cells by BMDCs; type: cell-based, C57BL/6 mice
[5] = system: splenocytes from C57BL/6 mice; assay: Cytotoxicity of CFZ on splenocytes, bolus-pulse vs low-extended; type: cell-based; details: 24 h total
Procedure: To estimate whether the sustained supply of CFZ is beneficial to sparing immune cells in the tumor microenvironment, we tested the cytotoxic effect of CFZ on splenocytes in two treatment regimens (FIG. 3A): a pulse treatment of bolus dose (bolus-pulse) and an extended treatment of low dose (low-extended), where bolus-pulse indicates incubation of cells in different CFZ concentrations for 2.4 h followed by washout and incubation in drug-free medium for additional 21.6 h making the total incubation time of 24 h, and low-extended indicates incubating cells in 1/10th CFZ concentrations for 24 h. The bolus-pulse regimen represents unformulated CFZ that is immediately available to the tumor upon intratumoral injection but rapidly diffuses to the circulation, whereas the low-extended regimen mimics the sustained release of CFZ from CFZ-pTA-alb over a prolonged period of time. Splenocytes freshly harvested from C57BL/6 mice were used as a surrogate for immune cells, as the spleen is the largest secondary lymphoid organ containing 25% of total lymphocytes^34, where B cells and T cells constitute 45-50% and 30-35%, respectively^35.
The cytotoxicity of CFZ was also measured on splenocytes. […] Cell viability was measured as described above.

Question: What does the source list for `CC(C)C[C@H](NC(=O)[C@H](CCc1ccccc1)NC(=O)CN1CCOCC1)C(=O)N[C@@H](Cc1ccccc1)C(=O)N[C@@H](CC(C)C)C(=O)[C@@]1(C)CO1` [CFZ, Carfilzomib]?
Answer: sensitivity to bolus-pulse vs low-extended regimen [1]: equally sensitive to the two regimens; CD40 expression on CD11c+ BMDCs [2]: increased the expression of the two activation markers; CD86 expression on CD11c+ BMDCs [2]: increased the expression of the two activation markers; plasma protein binding [3]: 97.6-98.2%; BMDC uptake of DiI+ B16F10 cells vs untreated B16F10 cells ([4]; 10 μM CFZ equivalent pretreatment 24 h, coculture 4 or 24 h): greater extents of DiI^+CD11c^+ cells per total CD11c^+ cells; BMDC uptake of pretreated B16F10 cells at 4° C. ([4]; 4° C.): diminished; BMDC uptake of DiI+ cells/fragments by confocal microscopy ([4]; Pearson's correlation coefficient of signal colocalization): increased; sensitivity to bolus-pulse vs low-extended regimen [5]: less sensitive to the low-extended regimen than to the bolus-pulse regimen
